Experiments:
Test in all cases: relative viability (nuclei count vs DMSO), 5 days (fraction); higher = more cells survive
[1] = compound: C[As](C)SC[C@H](NC(=O)CC[C@H](N)C(=O)O)C(=O)NCC(=O)O [Darinaparsin] + Cc1cc(Nc2cc(N3CCN(C)CC3)nc(Sc3ccc(NC(=O)C4CC4)cc3)n2)n[nH]1 [Tozasertib] (partner 0.1 µM)
How it was run: (§1)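 Lung cancer cell lines, seeded in 1536-well plates, were treated the following day by pin tool with a single drug or with five library-drug doses (not always all listed) in √10 steps on top of a fixed anchor-drug dose. Cells were fixed and nuclei stained in one step after 5 days, and nuclei were counted. Relative viability is the nuclei count for treated wells divided by that for vehicle wells, reported as medians of duplicate plates.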

[2] = compound: C[As](C)SC[C@H](NC(=O)CC[C@H](N)C(=O)O)C(=O)NCC(=O)O [Darinaparsin] + C[C@]1(O)C[C@@H](c2nc(-c3ccc4ccc(-c5ccccc5)nc4c3)c3c(N)nccn32)C1 [Linsitinib] (partner 1 µM)
How it was run: as §1

[3] = compound: CC1=C(C=C(C=C1)NC(=O)C2=CC(=CC=C2)C(C)(C)C#N)NC3=CC4=C(C=C3)N=CN(C4=O)C [AZ628] + CS(=O)(=O)CCNCc1ccc(-c2ccc3ncnc(Nc4ccc(OCc5cccc(F)c5)c(Cl)c4)c3c2)o1 [Lapatinib] (partner 2 µM)
How it was run: as §1

[4] = compound: C1CC2=C(C1)C=C(C=C2)OC3=NC(=C4C(=N3)N(C=N4)CC5=CC=C(C=C5)C6=CC=CC=C6)N[C@@H](CC7=CC=CC=C7)CO [QS11] + C[C@@H](Oc1cc(-c2cnn(C3CCNCC3)c2)cnc1N)c1c(Cl)ccc(F)c1Cl [Crizotinib] (partner 1 µM)
How it was run: as §1

Row | Cell Line | relative viability ([1]; first compound 0.08 µM) | relative viability ([1]; first compound 0.8 µM) | relative viability ([1]; first compound 2.53 µM) | relative viability ([1]; first compound 8 µM) | relative viability ([2]; first compound 0.08 µM) | relative viability ([2]; first compound 0.8 µM) | relative viability ([2]; first compound 2.53 µM) | relative viability ([2]; first compound 8 µM) | relative viability ([3]; first compound 0.08 µM) | relative viability ([3]; first compound 0.253 µM) | relative viability ([3]; first compound 0.8 µM) | relative viability ([3]; first compound 2.53 µM) | relative viability ([3]; first compound 8 µM) | relative viability ([4]; first compound 0.08 µM) | relative viability ([4]; first compound 0.253 µM) | relative viability ([4]; first compound 2.53 µM) | relative viability ([4]; first compound 8 µM) | relative viability ([4]; first compound 0.8 µM)
1 | H3255 | 0.605 | 0.585 | 0.63 | 0.598 | 0.995 | 0.96 | 0.86 | 1.16 | 0.258 | 0.256 | 0.292 | 0.269 | 0.251 | 0.869 | 0.973 | 1.02 | 0.847 | –
2 | LOU-NH91 | 0.743 | 0.647 | 0.666 | 0.761 | 0.962 | 0.92 | 0.952 | 0.946 | 0.776 | 0.738 | 0.724 | 0.67 | 0.626 | 0.713 | 0.709 | 0.694 | 0.744 | –
3 | NCI-H2126 | 0.935 | 0.794 | 0.69 | 0.878 | 0.815 | 0.756 | 0.589 | 0.803 | 0.758 | 0.857 | 0.834 | 0.752 | 0.89 | 1.05 | 1 | 0.897 | 0.758 | 0.855
4 | PC-14 | 0.707 | 0.479 | 0.768 | 0.577 | 1.04 | 0.94 | 0.896 | 1.09 | 0.347 | 0.365 | 0.351 | 0.313 | 0.343 | 0.851 | 0.896 | 0.848 | 0.911 | 0.871
5 | EMC-BAC-2 | 0.251 | 0.28 | 0.299 | 0.277 | 0.862 | 0.758 | 0.773 | 0.965 | 0.9 | 0.853 | 0.817 | 0.844 | 0.933 | 0.892 | 0.75 | 0.741 | 0.541 | 0.529
6 | HCC-78 | 0.449 | 0.461 | 0.386 | 0.491 | 0.502 | 0.56 | 0.588 | 0.424 | 0.81 | 0.725 | 0.961 | 0.703 | 0.479 | 0.326 | 0.342 | 0.325 | 0.331 | 0.289
7 | SK-LU-1 | 0.402 | 0.278 | 0.294 | 0.316 | 1.35 | 0.976 | 1.07 | 1.35 | 0.498 | 0.705 | 0.755 | 0.834 | 0.603 | 1.1 | 0.822 | 0.544 | 0.785 | 0.63
8 | ABC-1 | 0.169 | 0.205 | 0.2 | 0.192 | 0.801 | 0.849 | 0.735 | 1.04 | 1.04 | 1.09 | 1.08 | 1.16 | 0.985 | 0.942 | 1.18 | 0.913 | 0.912 | 0.959
9 | LK-2 | 0.203 | – | 0.177 | 0.175 | 0.486 | 0.459 | 0.658 | 0.637 | 1.06 | 0.56 | 0.885 | 0.799 | 0.537 | 0.25 | 0.221 | 0.266 | 0.214 | 0.215

Source: the supplement of paper PMC10307832
